PMC10574185, “Encapsulation and Biological Activity of Hesperetin Derivatives with HP-β-CD” (Molecules, 2023)

Assays:
[1] = system: HaCaT cells; assay: MTT cytotoxicity assay on HaCaT keratinocytes; format: cell-based, human
Method: HaCaT keratinocyte cells were exposed to chemical compounds at nine different concentrations (from 3.9 to 995.6 µg/mL) in four replicates of each concentration for 24 and 48 h.
All compounds were dissolved in sterile DMSO (Merck Life Science, Warsaw, Poland) and were sterile-filtered with 0.22 µm pore size sterile disposable syringe filters.
HaCaT cell line (the normal immortalised human keratinocytes) used in the study derived from the 35th passage (the original material created by Prof. Dr. Petra Boukamp and Dr. Norbert Fusenig) was purchased from Cell Line Service GmbH (Eppelheim, Germany). The cells were cultured and propagated as described previously.
The cytotoxicity was assessed with MTT assay according to methodology applied previously.
The following final concentrations (in four replicates per experiment) of the test compounds were tested (µg/mL): 3.9; 7.8; 15.6; 31.1; 62.2; 124.5; 248.9; 497.8, and 995.6. […] Three independent experiments were conducted. The vehicle was cells in the culture medium. The assay was conducted for 24 h and 48 h.

[2] = system: Listeria monocytogenes ATCC 19111; assay: Antagonistic activity, diffusion-well method; format: cell-based; conditions: ATCC19111, compounds at 2.5 µM, wells 8 mm, 37 °C, 18 h
Method: (§1) The antimicrobial activity of the HESP, ligands ([…], and HTSC), and complexes with HP-β-CD were tested against Gram-positive bacteria (Listeria monocytogenes ATCC 19111, Listeria monocytogenes ATCC 19112, Listeria monocytogenes ATCC 19115, Staphylococcus aureus ATCC 29737, Staphylococcus aureus ATCC 25923, Staphylococcus aureus ATCC 27734) and Gram-negative bacteria (Escherichia coli ATCC 11303, Escherichia coli ATCC 35218, Salmonella Typhimurium, ATCC 14028, Salmonella Enteritidis ATCC 13076, Salmonella Choleraesuis ATCC 7001). The strains were activated from cryobanks by passaging them twice onto a Nutrient Broth (Merck, Darmstadt, Germany). All bacteria were grown for 24 h at 37 °C. Antagonistic activity of the following chemical compounds: […], and […] determined by the diffusion-well method. The test strains were plated on Mueller-Hinton Agar (Merck, Darmstadt, Germany) in the form of a surface layer of bacteria according to the procedures recommended by the European Committee on Antimicrobial Susceptibility Testing EUCAST [74]. The detailed methodology was described in the paper by Sykuła et al.. Bacterial inoculum was prepared from an overnight solid culture. The inoculum density was 1-2 × 10^8 CFU/mL, which corresponds to a McFarland standard of 0.5. The samples of the test compounds were dissolved in 5% (w/w) DMSO to obtain a concentration of 500 μM, and were sterilized using filtration (filter pore width 0.2 μm; (Sartorius AG, Gottingen, Germany). The bacteria inoculum test culture (0.1 mL) smear conducted was on sterile Mueller-Hinton Agar (Merck, Darmstadt, Germany) plates. […] A total of 50 μL of the prepared solutions of the tested compounds at a concentration of 500 μM were added to the wells. The plates prepared in this way were incubated at 37 °C for 18 h. After this time, zones of growth inhibition were read and the result was given in mm. The experiment was carried out in two independent repetitions. The results were expressed in average values and standard deviation. The results were analyzed using a one-way ANOVA and post-hoc Tukey's test.

[3] = system: Listeria monocytogenes ATCC 19112; assay: Antagonistic activity, diffusion-well method; format: cell-based; conditions: ATCC19112, compounds at 2.5 µM, wells 8 mm, 37 °C, 18 h
Method: as §1

[4] = system: Listeria monocytogenes ATCC 19115; assay: Antagonistic activity, diffusion-well method; format: cell-based; conditions: ATCC19115, compounds at 2.5 µM, wells 8 mm, 37 °C, 18 h
Method: as §1

[5] = system: Salmonella Choleraesuis ATCC 7001; assay: Antagonistic activity, diffusion-well method; format: cell-based; conditions: Salmonella enterica, compounds at 2.5 µM, wells 8 mm, 37 °C, 18 h
Method: as §1

[6] = system: Salmonella Enteritidis ATCC 13076; assay: Antagonistic activity, diffusion-well method; format: cell-based; conditions: Salmonella enterica, compounds at 2.5 µM, wells 8 mm, 37 °C, 18 h
Method: as §1

[7] = system: Salmonella Typhimurium ATCC 14028; assay: Antagonistic activity, diffusion-well method; format: cell-based; conditions: Salmonella enterica, compounds at 2.5 µM, wells 8 mm, 37 °C, 18 h
Method: as §1

[8] = system: Staphylococcus aureus ATCC 27734; assay: Antagonistic activity, diffusion-well method; format: cell-based; conditions: ATCC27734, compounds at 2.5 µM, wells 8 mm, 37 °C, 18 h
Method: as §1

[9] = system: Escherichia coli ATCC 11303; assay: Minimal inhibition concentration (dilution + diffusion-well); format: cell-based; conditions: ATCC11303, 37 °C, 18 h
Method: (§2) The MIC was performed for compounds and strains sensitive to their action in the antagonistic test. Minimum inhibitory concentration was determined by combining the dilution method with the diffusion-well method. Test compounds at a concentration of 500 μM were prepared in 5% (w/w) DMSO. Surface layer of microorganisms, against which antagonistic activity was noted, were prepared in the same way as for the antagonistic test. Then, two-fold sequential dilutions of the test compounds in the range of 500 µM to 62.5 µM were prepared. Wells with a diameter of 8 mm cut in the Mueller–Hinton Agar (Merck, Darmstadt, Germany) with the test strain were added with 50 µL of the prepared dilutions, which corresponded to the following concentrations of the tested compounds: […], 1.25 mM, 0.625 mM, and […]. Petri dishes prepared in this way were incubated at 37 °C for 18 h. After a given time, the MIC value was read. The MIC concentration expressed in µM was the first concentration of the tested compounds at which growth inhibition of the test strain was observed.

[10] = system: Staphylococcus aureus ATCC 25923; assay: as above; format: cell-based; conditions: ATCC25923, 37 °C, 18 h
Method: as §2

[11] = system: Staphylococcus aureus ATCC 29737; assay: as above; format: cell-based; conditions: ATCC29737, 37 °C, 18 h
Method: as §2

MIC [9]: 2.5 µM
MIC [10]: 2.5 µM
MIC [11]: 2.5 µM
Compound: CC(O)COC[C@H]1O[C@@H]2O[C@H]3[C@H](O)[C@@H](O)[C@@H](O[C@H]4[C@H](O)[C@@H](O)[C@@H](O[C@H]5[C@H](O)[C@@H](O)[C@@H](O[C@H]6[C@H](O)[C@@H](O)[C@@H](O[C@H]7[C@H](O)[C@@H](O)[C@@H](O[C@H]8[C@H](O)[C@@H](O)[C@@H](O[C@H]1[C@H](O)[C@H]2O)O[C@@H]8COCC(C)O)O[C@@H]7COCC(C)O)O[C@@H]6COCC(C)O)O[C@@H]5COCC(C)O)O[C@@H]4COCC(C)O)O[C@@H]3COCC(C)O (stereo partly drawn) [HP-β-CD, (2-Hydroxypropyl)-β-cyclodextrin]
cytotoxicity (maximum over tested concentrations) ([1]; 24 h, 3.9-995.6 µg/mL): up to 6.6% ± 7.2
Non-cytotoxic concentration (IC0) ([1]; 24 h exposure): ≤ 31.1 µg/mL
Non-cytotoxic concentration (IC0) ([1]; 48 h exposure): ≤ 3.9 µg/mL
zone of inhibition at 2.5 µM [2]: 0 mm
zone of inhibition at 2.5 µM [3]: 0 mm
zone of inhibition at 2.5 µM [4]: 0 mm
zone of inhibition at 2.5 µM [5]: 0 mm
zone of inhibition at 2.5 µM [6]: 0 mm
zone of inhibition at 2.5 µM [7]: 0 mm
zone of inhibition at 2.5 µM [8]: 0 mm
